Series [1] deals with Evans Blue-Carrageenan Pleural Effusion. Briefly: Modification of the Evans Blue-Carrageenan Pleural Effusion Assay (anti-inflammatory activity). Particulars: relative to 4-amino-3-benzoylphenylacetic acid; method of Sancilio. Type of series: in vivo. As to the method: The prior art (South African Patent 68/4682) discloses 4-amino-3-benzoylphenylacetic acid, m.p. 135°-7° C. The compound was prepared and tested for anti-inflammatory activity by the method of Sancilio referred to immediately hereinabove.

For series [2], the system named is collagen-induced platelet aggregation in rabbit plasma. The series can be described thus: Inhibition of collagen-induced platelet aggregation in rabbit plasma. The format is cell-based. Particulars: Table III. An excerpt: ^1 Concentration required to inhibit aggregation by 50%.
Series [3] relates to Collagen-Induced Platelet Aggregation. The series can be described thus: Collagen-induced platelet aggregation after oral dosing of rats (platelet rich plasma 2 h after dose). Type of series: in vivo, rat. Here is the method: The procedure used is essentially that as described by Born, J. of Phys. […] Rats were orally administered test drugs and after two hours the rats were bled and platelet rich plasma obtained. Collagen was added to the platelet rich plasma to induce platelet aggregation and comparisons were made between control and treated samples.

The test system of series [4] is Adenosine Diphosphate-Induced Platelet Aggregation-Rabbit Plasma. The series can be described thus: In vitro inhibition of adenosine diphosphate-induced platelet aggregation in rabbit plasma. Type of series: cell-based. Particulars: Table IV, ADP. An excerpt:
Effects on Adenosine Diphosphate-Induced
Platelet Aggregation-Rabbit Plasma

The conditions of series [5]: Table IV comment.
Setting [6] is: Oryctolagus cuniculus, Platelet, 1.0 mM, read-out: Percent Inhibition.
The mark [7] stands for this setting: Table I, 10.00 mg/kg PO, rats, collagen.
Setting [8] is: Table I, 100.00 mg/kg PO, rats, collagen.
Where [9] appears, read: Table I, 31.60 mg/kg PO, rats, collagen.

As to `Nc1cccc(C(=O)c2ccccc2)c1CC(=O)O` [2-amino-6-benzoylphenylacetic acid], the “Anti-inflammatory activity, times the activity of the prior art 4-amino-3-benzoylphenylacetic acid” value (shortened to “Anti-inflammatory activity”) in series [1] is approximately 3 times.
On to `CC(=O)Oc1ccccc1C(=O)O` [Acetylsalicylic Acid, reference compound], for which the Estimated IC50 (concentration required to inhibit aggregation by 50%) in series [2] was 23 µM. For the same compound, in series [3] (Table II, 316.0 mg/kg PO, 2 rats), the “Percent Reduction in Aggregation” value is listed as -74%.
With `Nc1ncnc2c1ncn2[C@@H]1O[C@H](CO)[C@@H](O)[C@H]1O` [Adenosine], the inhibition at 1000 µM in series [4] (setting [6]) was found to be 84%.
Consider `Nc1c(CC(=O)O)cccc1C(=O)c1ccccc1` [Example 3, 2-Amino-3-benzoylphenylacetic Acid], for which the “Anti-inflammatory activity” value in series [1] is “about 39 times”.
Take `Nc1c(CC(=O)O)cc(Cl)cc1C(=O)c1ccccc1` [Example 6, 2-Amino-3-benzoyl-5-chlorophenylacetic Acid Hemihydrate]: the “Percent Reduction in Aggregation” value was -36% in series [3] (setting [7]) and -76% in series [3] (setting [8]).
On to `Nc1c(CC(=O)O)cccc1C(=O)c1ccccc1` [Example 8, Sodium 2-amino-3-benzoylphenylacetate Dihydrate], for which, in series [4] (Oryctolagus cuniculus, Platelet, 0.1 mM, read-out: Percent Inhibition), the inhibition at 100 µM is 4%. For the same compound, the inhibition at 1000 µM in series [4] (setting [6]) was 8%. The inhibition at 10000 µM in series [4] (Oryctolagus cuniculus, Platelet, 10.0 mM, read-out: Percent Inhibition) is 82%. The Estimated IC50 (Comment) in series [4] is 4000 µM. In series [2], the Estimated IC50 (concentration required to inhibit aggregation by 50%) was 0.2 µM and the “Estimated IC50 (concentration required to inhibit aggregation by 50%), value in parentheses” value was 0.2 µM. Moreover, the “Percent Reduction in Aggregation” value in series [3] (Table I, 8.00 mg/kg PO, rats, collagen) was -63%. In series [3] (Table II, 8.0 mg/kg PO, 3 rats), the “Percent Reduction in Aggregation” value is given as -63%.
On to `CCOC(=O)Cc1cccc(C(=O)c2ccccc2)c1N` [Example 9, Ethyl 2-amino-3-benzoylphenylacetate], for which the “Percent Reduction in Aggregation” value in series [3] (setting [7]) was -49%; in series [3] (setting [8]), -75%.
Consider `CN(C)c1c(CC(=O)O)cccc1C(=O)c1ccccc1` [Example 12, 2-Dimethylamino-3-benzoylphenylacetic Acid], for which the “Percent Reduction in Aggregation” value in series [3] (setting [9]) is recorded as -56%.
Turning to `Nc1c(CC(=O)O)cccc1C(=O)c1ccc(Cl)cc1` [Example 14, Sodium 2-amino-3-(4-chlorobenzoyl)phenylacetate Hydrate], the “Percent Reduction in Aggregation” value is reported as -27% in series [3] (setting [9]) and -65% in series [3] (setting [8]).
Regarding `CC(C(=O)[O-])c1cccc(C(=O)c2ccccc2)c1N.O.[Na+]` (stereo not drawn) [Example 15, Sodium 2-amino-3-benzoyl-α-methylphenylacetate Hydrate], the “Percent Reduction in Aggregation” value in series [3] (Table I, 3.00 mg/kg PO, rats, collagen) was -56%; in series [3] (setting [9]), -48%; in series [3] (setting [8]), -76%.
`Nc1c(CC(=O)O)cccc1C(=O)c1ccccc1` [Example 16, Potassium 2-amino-3-benzoylphenylacetate Hydrate]: in series [3] (Table I, 0.20 mg/kg PO, rats, collagen, Hydrate, 0.2 mg/kg), the “Percent Reduction in Aggregation” value is listed as -56%.
As to `COc1ccc(C(=O)c2cccc(CC(=O)O)c2N)cc1` [Example 24, 2-Amino-3-(4-methoxybenzoyl)phenylacetic Acid], the “Percent Reduction in Aggregation” value in series [3] (Table I, 0.00063 mg/kg PO, rats, collagen) was -73%; in series [3] (Table I, 4.00 mg/kg PO, rats, collagen), -88%; in series [3] (Table I, 25.00 mg/kg PO, rats, collagen), -71%; in series [3] (setting [8]), -81%.
Consider `Nc1c(CC(=O)O)cccc1C(=O)c1ccccc1` [Example 25, Magnesium 2-amino-3-benzoylphenylacetate Trihydrate], for which, in series [3] (Table I, 0.20 mg/kg PO, rats, collagen, Trihydrate, 0.2 mg/kg), the “Percent Reduction in Aggregation” value was -25%.
Regarding `Nc1c(CC(=O)O)cccc1C(=O)c1ccccc1` [Example 27, Sodium 2-Amino-3-benzoylphenylacetate Hydrate], the “Percent Reduction in Aggregation” value in series [3] (Table I, 0.00032 mg/kg PO, rats, collagen) was -76%; in series [3] (Table I, 1.30 mg/kg PO, rats, collagen), -44%; in series [3] (Table I, 5.10 mg/kg PO, rats, collagen), -68%; in series [3] (setting [8]), -77%.
For the compound `O=C(O)c1ccccc1Nc1cccc(C(F)(F)F)c1` [Flufenamic Acid], the Estimated IC50 (concentration required to inhibit aggregation by 50%) in series [2] is 2 µM.
Consider `CCCCC1C(=O)N(c2ccccc2)N(c2ccccc2)C1=O` [Phenylbutazone], for which, in series [4] (Oryctolagus cuniculus, Platelet, 0.4 mM, read-out: Percent Inhibition), the inhibition at 400 µM was 3%. Also, the inhibition at 800 µM in series [4] (Oryctolagus cuniculus, Platelet, 0.8 mM, read-out: Percent Inhibition) turned out to be 2%. Further, the Estimated IC50 (concentration required to inhibit aggregation by 50%) in series [2] is 150 µM. Moreover, in series [3] (Table II, 50.0 mg/kg PO, 2 rats), the “Percent Reduction in Aggregation” value is on record as -74%.
Turning to `O=C(O)c1ccccc1O` [Salicyclic Acid], the “Percent Inhibition” value in series [4] (0.05 mM) stood at 7%; in series [4] (0.50 mM), 7%; in series [4] (1.0 mM) it was 12%; in series [4] (10.0 mM), 20%. In series [5], the “Comment: solubility precludes higher testing” value was “precludes higher”.
In the case of `Nc1c(CC(=O)[O-])cccc1C(=O)c1ccccc1.[Na+]` [sodium 2-amino-3-benzoylphenylacetate], the “Anti-inflammatory activity” value in series [1] was approximately 48 times.

A word on the inhibition: it is how much of the control response was suppressed.

The values above are taken from patent publication US4182774A, “Method of inhibiting blood platelet aggregation with 2-amino-3-(5- and 6-)benzoylphenylacetic acids, esters and metal salts thereof” (A. H. Robins Company, Incorporated, priority 1978, dated 1980).
